Five molecules from ChEMBL document CHEMBL1201862, “PubChem BioAssay data set” (2004) can be followed below.

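Growth conditions: 96-well plates. Treatment: test compound, 48 hours, 5 concentrations. Analysis: linear interpolation between bracketing concentrations; unreached endpoints set to highest concentration. GI50 is the concentration that inhibits growth by half.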 Calls of active or inactive are those of the source. Rule as the data show it: active = GI50 up to about 1.1 µM and inactive = higher. Some results are limits rather than exact numbers.

Among the test systems are COLO 205; CAKI-1; ACHN; RXF 393; UACC-257; SNB-75; SK-OV-3; CCRF-CEM; OVCAR-5; NCI/ADR-RES; SF-295; OVCAR-3; RPMI-8226; A549; HOP-92; HT-29; NCI-H23; SW-620; NCI-H460; OVCAR-4.
What all share (test): NCI anticancer screen, dose series, 48 h

On to `CCN(CC)C(=S)N/N=C(\C)c1cccc(C)n1`, for which the GI50 with COLO 205 was < 0.01 µM (active); in the experiment with CAKI-1 it was 0.31 µM (active); in the experiment with ACHN it was 0.0184 µM (active); with RXF 393, 0.568 µM (active); with UACC-257, < 0.01 µM (active); in the experiment on SNB-75, 4.11 µM (inactive). In addition, the GI50 was 1.57 µM (inactive) with SK-OV-3; < 0.01 µM (active) with CCRF-CEM; 2.08 µM (inactive) in the experiment with OVCAR-5; < 0.01 µM (active) in the experiment with NCI/ADR-RES; 0.315 µM (active) with SF-295; < 0.01 µM (active) in the experiment with OVCAR-3. The GI50 was < 0.01 µM (active) in the experiment with RPMI-8226, 0.259 µM (active) in the experiment on A549, 1.49 µM (inactive) in the experiment on HOP-92 and < 0.01 µM (active) in the experiment on HT-29.
In the case of `CCC(C(C)N1CC(=O)NC(=O)C1)N1CC(=O)NC(=O)C1` (centres undefined), the GI50 was 29 µM (inactive) in the experiment with NCI-H23; 0.506 µM (active) with COLO 205; > 100 µM (inactive) with CAKI-1; 17.4 µM (inactive) with SW-620; > 100 µM (inactive) with RXF 393; > 100 µM (inactive) in the experiment on UACC-257. Besides, the GI50 in the experiment with SNB-75 is > 48.9 µM (inactive); with SK-OV-3, > 100 µM (inactive); with CCRF-CEM, 4.93 µM (inactive); in the experiment with OVCAR-5 it was > 25.1 µM (inactive); in the experiment on NCI/ADR-RES it was 44.8 µM (inactive); with SF-295, > 100 µM (inactive). Further, the GI50 in the experiment with OVCAR-3 was > 100 µM (inactive); in the experiment on RPMI-8226 it was 97.5 µM (inactive); with A549 it was 1.51 µM (inactive); in the experiment with NCI-H460, 0.141 µM (active); in the experiment with HOP-92, > 100 µM (inactive); in the experiment on OVCAR-4 it was > 100 µM (inactive). The GI50 in the experiment on HT-29 was 62.1 µM (inactive).
As for `O=C(O)C1Cc2c([nH]c3ccccc23)C=N1` (centres undefined), the GI50 in the experiment on NCI-H23, with COLO 205, in the experiment on CAKI-1, with SW-620, with RXF 393 and with UACC-257 was > 100 µM (inactive) throughout. The GI50 with SNB-75, in the experiment on SK-OV-3, in the experiment with CCRF-CEM, in the experiment on OVCAR-5, with NCI/ADR-RES and with SF-295 was > 100 µM (inactive) throughout. For the same molecule, the GI50 in the experiment with OVCAR-3 was > 100 µM (inactive); with RPMI-8226, > 100 µM (inactive); in the experiment on A549, > 100 µM (inactive); in the experiment with NCI-H460 it was > 100 µM (inactive); in the experiment on HOP-92, > 74.1 µM (inactive); in the experiment on OVCAR-4 it was > 100 µM (inactive). The GI50 in the experiment on HT-29 is > 100 µM (inactive).
For the molecule `O=Cc1c(Br)[nH]c2ccccc12`, the GI50 is > 100 µM (inactive) with NCI-H23; 97.9 µM (inactive) in the experiment with COLO 205; > 100 µM (inactive) in the experiment with SW-620; > 100 µM (inactive) in the experiment with RXF 393; 26.9 µM (inactive) with UACC-257; 28.8 µM (inactive) with SNB-75. Also, the GI50 in the experiment on SK-OV-3 is 94.4 µM (inactive); in the experiment with CCRF-CEM, 96.6 µM (inactive); in the experiment with OVCAR-5 it was > 91.4 µM (inactive); in the experiment on NCI/ADR-RES, > 100 µM (inactive); in the experiment with SF-295, 75.2 µM (inactive); in the experiment with OVCAR-3, > 100 µM (inactive). Besides, the GI50 in the experiment on RPMI-8226 was 19.3 µM (inactive); in the experiment with A549, > 100 µM (inactive); in the experiment on NCI-H460, > 100 µM (inactive); with HOP-92, 29.6 µM (inactive); in the experiment on OVCAR-4 it was 56.8 µM (inactive); in the experiment with HT-29 it was > 100 µM (inactive).
On to `O=C(NCCCNC(=O)c1ccc2cc(O)c(O)cc2c1)c1ccc2cc(O)c(O)cc2c1`, for which the GI50 was 22.5 µM (inactive) with NCI-H23; 30.7 µM (inactive) in the experiment on COLO 205; > 100 µM (inactive) with CAKI-1; 43 µM (inactive) in the experiment on SW-620; 23.9 µM (inactive) in the experiment with ACHN; 24.7 µM (inactive) with RXF 393. Besides, the GI50 with UACC-257 is 36.4 µM (inactive); in the experiment on SNB-75 it was 22.8 µM (inactive); with CCRF-CEM it was 27.1 µM (inactive); with OVCAR-5 it was 63 µM (inactive); in the experiment on NCI/ADR-RES, > 100 µM (inactive); with RPMI-8226, 29.3 µM (inactive). Besides, the GI50 with A549 was 69.8 µM (inactive); in the experiment with NCI-H460 it was 34 µM (inactive); in the experiment with HOP-92, 14.2 µM (inactive); with OVCAR-4 it was 16.7 µM (inactive); in the experiment on HT-29, 23.4 µM (inactive).
